# Assay results: patent publication US5294603A, “Pharmaceutical compositions containing didemnins” (The Board of Trustees of The University of Illinois, priority 1992, dated 1994)
# Entries after “also recorded” stand apart in the source; their conditions may differ. Where two headings read alike, the source gives them in different places. Numbered stars: 1 amine (or outer) side, 2 acyl side, 3 side chain; on linkers, the order of the positions; unused ones are H or OH. Bridge positions count the residues as written; N and C are the ends. Square brackets hold non-standard residues; d marks the D form. Peptide text beside a SMILES is read from it. * marks the point of attachment. X14 = CC[C@H](C)[C@@H](N[*:1])[C@@H](O)CC(=O)O[C@@H](C(C)C)[C@@H](O)[C@H](C)C(=O)[*:2]; X4 = CC[C@H](C)[C@@H](N[*:1])[C@@H](O)CC(=O)O[C@@H](C(=O)[C@H](C)C(=O)[*:2])C(C)C; X1 = CC[C@H](C)[C@@H](N[*:1])[C@@H](O)CC(=O)O[C@H](C(=O)[C@H](C)C(=O)[*:2])C(C)C; NMeY = CN[C@@H](Cc1ccc(O)cc1)C(=O)O; dNMeL = CN[C@H](CC(C)C)C(=O)O; Isobutyryl = CC(C)C(=O)*; Pyruvoyl = CC(=O)C(=O)*
# Key:
# [1] = system: L1210 murine leukemia cells; conditions: Table 9
# [2] = system: Nb2 cells, rat T-cell node lymphoma; experiment: Competitive binding with [3H]didemnin B to Nb2 cells; conditions: 3 h at 37° C.
# Protocol: The immunosuppressive assay was performed by measuring competitive binding of tested compounds with [^3 H]didemnin B to Nb2 cells, rat T-cell node lymphoma. See, Russell, D. H., et al., J. Immunology, 1987, 138, 276-284.
# ^a Competing didemnins incubated with approximately 25 ng of [^3
# L1210 = L1210 cytotoxicity, inhibition at fixed doses (Table 10); assay type: cell-based, murine; conditions: tested 4/18/1991
# [3] = system: DNA synthesis in Nb2 node lymphoma cells; experiment: Inhibition of ongoing DNA synthesis in prolactin-stimulated Nb2 cells; assay type: cell-based, rat; conditions: Nb2 cells stimulated with prolactin for 24 h
# Protocol: (§1) Also inhibitions of protein and DNA synthesis of several compounds were measured using Nb2 node lymphoma cells which were stimulated by a treatment of cells with prolactin. (ibid.)
# (§2) ^a Nb2 cells were stimulated with prolactin for 24 h, then exposed to
# (§3) ^b 50% Inhibitory concentration, calculated with linear regression
# [4] = system: Protein synthesis in Nb2 node lymphoma cells; experiment: Inhibition of ongoing protein synthesis in prolactin-stimulated Nb2 cells; assay type: cell-based, rat; conditions: Nb2 cells stimulated with prolactin for 24 h
# Protocol: as §1, §2, §3
# [5] = earlier work, Rinehart et al. 1988; cited from earlier work
# Visna virus (VIV) = assay type: cell-based
# [6] = earlier work of Gloer; cited from earlier work
# VSV = assay type: cell-based, vesicular stomatitis virus
# [7] = system: BHK = Baby hamster kidney cells
# HSV-1 = assay type: cell-based, Herpes simplex virus Type I
# Lewis lung carcinoma = experiment: In vivo antitumor activity, Lewis lung; set-up: species or system mice
# Protocol: (§4) Compound 106 was prepared semisynthetically for in vivo antitumor testing in mice.
# (§5) ^b Schedule 1-9 days i. p.
# ^f Lewis lung carcinoma, median tumor volume of control mice 1372
# B16 melanoma = experiment: In vivo antitumor activity, B16; set-up: species or system mice; conditions: for T/C (treated/control): significant >125%
# Protocol: as §4, §5
# ^e B16 melanoma. Median survival of control mice, 17.0 days.
# P388 murine lymphoma = experiment: In vivo antitumor activity, P388; set-up: species or system mice; conditions: for T/C (treated/control): significant >125%
# Protocol: as §4, §5
# ^d P388 murine lymphoma. Median survival of control mice, 10.0 days.
compound,measurement,setting,value
"CC[C@H](C)[C@@H](NC(=O)[C@@H](NC(=O)[C@@H](CC(C)C)NC)[C@@H](C)O)[C@@H](O)CC(=O)O[C@H](C(=O)[C@H](C)C(=O)N[C@@H](CC(C)C)C(=O)N1CCC[C@H]1C(=O)N(C)[C@@H](Cc1ccc(OC)cc1)C(=O)O)C(C)C [Acyclodidemnin A (16), Acyclodidemnin A] (H-[dNMeL]T[X1]LP[NMeY](Me)-OH)",Cytotoxicity L1210 IC50,[1],30 ng/mL
same,Inhibition of [3H]didemnin B binding (%),[2]; 0.001 μg/mL,0%
same,Inhibition of [3H]didemnin B binding (%),[2]; 0.01 μg/mL,7%
same,Inhibition of [3H]didemnin B binding (%),[2]; 0.1 μg/mL,6%
same,Inhibition of [3H]didemnin B binding (%),[2]; 1 μg/mL,8%
same,Inhibition (%),L1210; dose 25 ng/mL,25%
same,Inhibition (%),L1210; dose 250 ng/mL,99%
same,IC50 DNA,[3],inactive (1 g)
same,CV-1,CV-1 monkey kidney cells,0
same,IC50 Protein,[4],inactive (1 g)
"CC[C@H](C)[C@@H]1NC(=O)[C@@H](NC(=O)[C@H](CC(C)C)N(C)C(C)=O)[C@H](C)OC(=O)[C@H](Cc2ccc(OC)cc2)N(C)C(=O)[C@@H]2CCCN2C(=O)[C@H](CC(C)C)NC(=O)[C@@H](C)C(=O)[C@H](C(C)C)OC(=O)C[C@@H]1OC(C)=O [Diacetyldidemnin A (32), N,O-Diacetyldidemnin A]",Cytotoxicity L1210 IC50,[1],15 ng/mL
same,antiviral activity (in vitro),[5],improvement of the antiviral activity
same,VIV Protection,"Visna virus (VIV); Table 9, 0.1 μg/mL",< 0%
same,cytotoxicity compared with Compound 1,[6],weaker cytotoxicity than Compound 1
"CC[C@H](C)[C@H]1NC(=O)[C@@H](NC(=O)[C@@H](CC(C)C)N(C)C(=O)[C@@H]2CCCN2C(=O)[C@H](C)O)[C@@H](C)OC(=O)[C@H](Cc2ccc(O)cc2)NC(=O)[C@@H]2CCCN2C(=O)[C@H](CC(C)C)NC(=O)[C@@H](C)C(=O)[C@H](C(C)C)OC(=O)C[C@@H]1O [Didemnin N (13), Didemnin N]",Cytotoxicity L1210 IC50,[1],30 ng/mL
same,Inhibition of [3H]didemnin B binding (%),[2]; 0.001 μg/mL,3%
same,Inhibition of [3H]didemnin B binding (%),[2]; 0.01 μg/mL,6%
same,Inhibition of [3H]didemnin B binding (%),[2]; 0.1 μg/mL,4%
same,Inhibition of [3H]didemnin B binding (%),[2]; 1 μg/mL,10%
same,IC50 DNA,[3],"200,000 ng/mL"
same,CV-1,CV-1 monkey kidney cells,0
"CC[C@H](C)[C@H]1NC(=O)[C@@H](NC(=O)[C@@H](CC(C)C)NC)[C@@H](C)OC(=O)[C@H](Cc2ccc(OC)cc2)N(C)C(=O)[C@@H]2CCCN2C(=O)[C@H](CC(C)C)NC(=O)[C@@H](C)C(=O)[C@@H](C(C)C)OC(=O)C[C@@H]1O [Epididemnin A (15), Epididemnin A] (H-[dNMeL]T[X4]LP[NMeY](Me); ester 2-C)",Cytotoxicity L1210 IC50,[1],300 ng/mL
same,Inhibition of [3H]didemnin B binding (%),[2]; 0.001 μg/mL,0%
same,Inhibition of [3H]didemnin B binding (%),[2]; 0.01 μg/mL,3%
same,Inhibition of [3H]didemnin B binding (%),[2]; 0.1 μg/mL,9%
same,Inhibition of [3H]didemnin B binding (%),[2]; 1 μg/mL,12%
same,VIV Protection,Visna virus (VIV),< 0
same,IC50 DNA,[3],inactive (1 g)
same,CV-1,CV-1 monkey kidney cells,0
"CC[C@H](C)[C@H]1NC(=O)[C@@H](NC(=O)[C@@H](CC(C)C)N(C)C(=O)[C@H]2CCCN2C(=O)C(C)=O)[C@@H](C)OC(=O)[C@H](Cc2ccc(OC)cc2)N(C)C(=O)[C@@H]2CCCN2C(=O)[C@H](CC(C)C)NC(=O)[C@@H](C)C(=O)[C@H](C(C)C)OC(=O)C[C@@H]1O [Pyruv-D-Pro-DA, Pyruv-D-Pro Didemnin A] (Pyruvoyl-[dP][dNMeL]T[X1]LP[NMeY](Me); ester 3-C)",IC50,L1210 cells,6 ng/mL
same,cytotoxicity compared with DDB,L1210 cells,only partially active
same,VSV,VSV,+ ++
"CC[C@H](C)[C@H]1NC(=O)[C@@H](NC(=O)[C@@H](CC(C)C)NC)[C@@H](C)OC(=O)[C@H](Cc2ccc(OC)cc2)N(C)C(=O)[C@@H]2CCCN2C(=O)[C@H](CC(C)C)NC(=O)[C@@H](C)[C@H](O)[C@H](C(C)C)OC(=O)C[C@@H]1O [[Dihydro(2S,3S,4S)Hip^2]didemnin A, reference compound] (H-[dNMeL]T[X14]LP[NMeY](Me); ester 2-C)",cytotoxicity compared with Compound 1,[6],weaker cytotoxicity than Compound 1
CC[C@H](C)[C@H]1NC(=O)[C@@H](NC(=O)[C@@H](CC(C)C)N(C)C(=O)[C@@H]2CCCN2C(=O)C(C)C)[C@@H](C)OC(=O)[C@H](Cc2ccc(OC)cc2)N(C)C(=O)[C@@H]2CCCN2C(=O)[C@H](CC(C)C)NC(=O)[C@@H](C)C(=O)[C@H](C(C)C)OC(=O)C[C@@H]1O [[Isobutyryl^9]didemnin B] (Isobutyryl-P[dNMeL]T[X1]LP[NMeY](Me); ester 3-C),Cytotoxicity L1210 IC50,[1],0.2 ng/mL
same,Inhibition of [3H]didemnin B binding (%),[2]; 0.001 μg/mL,2%
same,Inhibition of [3H]didemnin B binding (%),[2]; 0.01 μg/mL,4%
same,Inhibition of [3H]didemnin B binding (%),[2]; 0.1 μg/mL,59%
same,Inhibition of [3H]didemnin B binding (%),[2]; 1 μg/mL,75%
same,VIV Protection,Visna virus (VIV),-93
same,BHK,[7],"0, PT"
same,HSV-1,HSV-1,++ +
"CC[C@H](C)[C@H]1NC(=O)[C@@H](NC(=O)[C@@H](CC(C)C)N(C)C(=O)[C@@H]2CCCN2C(=O)C(C)=O)[C@@H](C)OC(=O)[C@H](Cc2ccc(OC)cc2)N(C)C(=O)[C@@H]2CCCN2C(=O)[C@H](CC(C)C)NC(=O)[C@@H](C)C(=O)[C@H](C(C)C)OC(=O)C[C@@H]1O [[Pyruvyl^9]Didemnin B (106), Dehydrodidemnin B] (Pyruvoyl-P[dNMeL]T[X1]LP[NMeY](Me); ester 3-C)",Cytotoxicity L1210 IC50,[1],0.2 ng/mL
same,VIV Protection,Visna virus (VIV),-92
same,activity against VIV,Visna virus (VIV),completely inactive
same,HSV-1,HSV-1,+ +
same,antiviral activity against HSV-1,HSV-1,several times more active than DB; also recorded: high order
same,IC50,L1210 cells,0.2 ng/mL
same,cytotoxic activity against L1210,L1210 cells,several times more active than DB
same,antiviral activity against VSV,VSV,high order
same,Median Tumor Vol.,Lewis lung carcinoma; 40 μg/kg/day,473 mm^3
same,"N. P. (Day 14), number of nonpalpable tumors",Lewis lung carcinoma; 40 μg/kg/day,0
same,Body Wt. Chenge.,Lewis lung carcinoma; 40 μg/kg/day i. p. days 1-9,-2.6 g
same,Median Tumor Vol.,Lewis lung carcinoma; 80 μg/kg/day,163 mm^3
same,"N. P. (Day 14), number of nonpalpable tumors",Lewis lung carcinoma; 80 μg/kg/day,2
same,Median Tumor Vol.,Lewis lung carcinoma; 160 μg/kg/day,0 mm^3
same,"N. P. (Day 14), number of nonpalpable tumors",Lewis lung carcinoma; 160 μg/kg/day,5
same,Body Wt. Chenge.,Lewis lung carcinoma; 160 μg/kg/day i. p. days 1-9,-3.7 g
same,Alive (day 24),"B16 melanoma; B16, 40 μg/kg/day",0
same,Median Survival,"B16 melanoma; B16, 40 μg/kg/day",30 days
same,Body wt. chenge.,"B16 melanoma; B16, 40 μg/kg/day i. p. days 1-9",0.1 g
same,T/C (treated/control),"B16 melanoma; B16, 40 μg/kg/day",178%
same,Alive (day 24),"B16 melanoma; B16, 80 μg/kg/day",0
same,Median Survival,"B16 melanoma; B16, 80 μg/kg/day",32 days
same,Body wt. chenge.,"B16 melanoma; B16, 80 μg/kg/day i. p. days 1-9",-0.5 g
same,T/C (treated/control),"B16 melanoma; B16, 80 μg/kg/day",188%
same,Alive (day 24),"B16 melanoma; B16, 160 μg/kg/day",0
same,Median Survival,"B16 melanoma; B16, 160 μg/kg/day",37 days
same,Body wt. chenge.,"B16 melanoma; B16, 160 μg/kg/day i. p. days 1-9",-1.3 g
same,T/C (treated/control),"B16 melanoma; B16, 160 μg/kg/day",218%
same,Alive (day 23),"P388 murine lymphoma; P388, 80 μg/kg/day",0
same,Median Survival,"P388 murine lymphoma; P388, 80 μg/kg/day",19.5 days
same,Body wt. chenge.,"P388 murine lymphoma; P388, 80 μg/kg/day i. p. days 1-9",-1.4 g
same,T/C (treated/control),"P388 murine lymphoma; P388, 80 μg/kg/day",195%
same,Alive (day 23),"P388 murine lymphoma; P388, 160 μg/kg/day",0
same,Median Survival,"P388 murine lymphoma; P388, 160 μg/kg/day",21.0 days
same,Body wt. chenge.,"P388 murine lymphoma; P388, 160 μg/kg/day i. p. days 1-9",-3.2 g
same,T/C (treated/control),"P388 murine lymphoma; P388, 160 μg/kg/day",210%
same,Alive (day 23),"P388 murine lymphoma; P388, 320 μg/kg/day",0
same,Median Survival,"P388 murine lymphoma; P388, 320 μg/kg/day",6.0 days
same,Body wt. chenge.,"P388 murine lymphoma; P388, 320 μg/kg/day i. p. days 1-9",-3.3 g
same,T/C (treated/control),"P388 murine lymphoma; P388, 320 μg/kg/day",60%
